{"source": "patent US5889029A", "about": "“Use of cotinine in treating psychiatric disorders” (priority 1997, dated 1999)", "key": {"[1]": {"target": "Glutamic Acid Decarboxylase (GAD)", "assay": "Glutamic Acid Decarboxylase (GAD) Enzyme Assay", "format": "biochemical", "conditions": "Rat corpus striatal membranes, [14C]L-Glutamic acid", "experimental": "Radioimmunoassay studies were conducted with rat corpus striatal membranes using the following method.\nGlutamic Acid Decarboxylase (GAD) Enzyme Assay\nRat corpus striatal membranes\nSubstrate: [^14 C]L-Glutamic acid (30-80 Ci/mmol)\nReactions are incubated in phosphate/mercapoethanol buffer\n6.9) for 30 minutes at 37° C. The reaction is\nstopped by the addition\nof trichloroacetic acid and placement on ice. Radioactive\ntrapped in phenylethylamine/methanol and quantitated using\nscintillation […] in order to ascertain any\nof test compounds with the glutamic acid decarboxylase"}, "[2]": {"target": "T1, nicotinic binding site (Rattus norvegicus, UniProt P09483+P12390)", "T1 construct": "Rat cortical membranes; from tissue; host or cells: rat cortical membranes", "assay": "biochemical", "conditions": "10^-6 M; Rat cortical membranes; [3H]N-methylcarbamylcholine iodide 2.5 nM; read-out: Receptor Binding Activity Percent Inhibition Average (N = 2)"}, "[3]": {"target": "T2, Dopamine (D1 Central) (Rattus norvegicus, UniProt P18901)", "T2 construct": "Rat striatal membranes; from tissue; host or cells: rat striatal membranes", "T2 sequence (P18901 whole entry)": "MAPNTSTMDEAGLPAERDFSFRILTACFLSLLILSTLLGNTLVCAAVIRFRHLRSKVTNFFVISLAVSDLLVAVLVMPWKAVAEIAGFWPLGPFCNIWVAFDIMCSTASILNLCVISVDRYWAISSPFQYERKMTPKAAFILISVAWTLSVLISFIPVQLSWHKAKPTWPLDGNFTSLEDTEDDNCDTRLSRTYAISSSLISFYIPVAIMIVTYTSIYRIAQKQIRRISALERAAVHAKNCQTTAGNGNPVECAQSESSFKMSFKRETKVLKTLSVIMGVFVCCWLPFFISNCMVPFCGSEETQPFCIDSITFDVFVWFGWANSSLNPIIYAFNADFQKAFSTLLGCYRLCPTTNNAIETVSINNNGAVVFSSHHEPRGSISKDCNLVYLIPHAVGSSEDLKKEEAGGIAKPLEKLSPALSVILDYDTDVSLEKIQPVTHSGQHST", "assay": "Dopamine (D1 Central) Binding Assay", "conditions": "10^-6 M; Rat striatal membranes; [3H]SCH 23390 0.5 nM"}, "[4]": {"target": "T3, Human recombinant M2 clone (Homo sapiens, UniProt P08172)", "T3 construct": "expressed in transfected cells", "T3 sequence (P08172 1-466)": "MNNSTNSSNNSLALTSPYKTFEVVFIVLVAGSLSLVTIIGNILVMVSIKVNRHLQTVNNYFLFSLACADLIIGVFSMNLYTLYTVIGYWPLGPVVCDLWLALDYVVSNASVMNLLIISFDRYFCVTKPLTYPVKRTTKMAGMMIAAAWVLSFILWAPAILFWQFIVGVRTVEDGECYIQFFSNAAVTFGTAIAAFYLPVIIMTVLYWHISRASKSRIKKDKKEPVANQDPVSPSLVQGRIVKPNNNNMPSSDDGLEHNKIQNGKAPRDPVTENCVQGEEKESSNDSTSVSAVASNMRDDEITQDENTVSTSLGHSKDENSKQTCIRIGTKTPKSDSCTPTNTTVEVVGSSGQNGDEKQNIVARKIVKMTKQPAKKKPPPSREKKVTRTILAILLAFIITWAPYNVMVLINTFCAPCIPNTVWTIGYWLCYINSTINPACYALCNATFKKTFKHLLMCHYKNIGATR", "assay": "Muscarinic--M2 Clone Binding Assay", "conditions": "read-out: Receptor Binding Activity Percent Inhibition Average (N = 2)"}, "[5]": {"target": "T4, Opiate (Delta) (Rattus norvegicus, UniProt P33533)", "T4 construct": "Rat forebrain membranes; from tissue; host or cells: rat forebrain membranes", "assay": "Opiate (Delta) Binding Assay", "conditions": "read-out: Receptor Binding Activity Percent Inhibition Average (N = 2)"}, "[6]": {"target": "T5, Serotonin (5HT1A) (Bos taurus, UniProt F6Q2H9)", "T5 construct": "Bovine hippocampal membranes; from tissue; host or cells: bovine hippocampal membranes", "T5 sequence (F6Q2H9 1-422)": "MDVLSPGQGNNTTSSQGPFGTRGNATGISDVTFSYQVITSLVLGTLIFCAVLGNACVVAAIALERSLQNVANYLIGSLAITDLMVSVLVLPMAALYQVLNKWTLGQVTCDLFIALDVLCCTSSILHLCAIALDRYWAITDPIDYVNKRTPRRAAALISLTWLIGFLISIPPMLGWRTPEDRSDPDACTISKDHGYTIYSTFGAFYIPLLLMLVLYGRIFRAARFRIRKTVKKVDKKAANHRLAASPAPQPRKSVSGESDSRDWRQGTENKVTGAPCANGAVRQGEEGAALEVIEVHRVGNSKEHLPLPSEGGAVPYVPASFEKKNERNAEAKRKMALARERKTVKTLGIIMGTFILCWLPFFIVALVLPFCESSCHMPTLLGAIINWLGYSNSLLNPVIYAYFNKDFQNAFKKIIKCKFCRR", "assay": "Serotonin (5HT1A) Binding Assay", "design": "species or system Bovine", "conditions": "10^-6 M; Bovine hippocampal membranes; [3H]-8-OH-DPAT 1.0 nM; read-out: Receptor Binding Activity Percent Inhibition Average (N = 2)"}, "[7]": {"target": "Glycine (Strychnine Insensitive) (Rattus norvegicus, UniProt P35439)", "assay": "biochemical", "format": "binding", "conditions": "read-out: Receptor Binding Activity Percent Inhibition Average (N = 2)"}, "[8]": {"target": "T6, Inositol Triphosphate (IP3) (Rattus norvegicus, UniProt P29994)", "T6 construct": "Rat cerebellar membranes; from tissue; host or cells: rat cerebellar membranes", "T6 sequence (P29994 whole entry)": "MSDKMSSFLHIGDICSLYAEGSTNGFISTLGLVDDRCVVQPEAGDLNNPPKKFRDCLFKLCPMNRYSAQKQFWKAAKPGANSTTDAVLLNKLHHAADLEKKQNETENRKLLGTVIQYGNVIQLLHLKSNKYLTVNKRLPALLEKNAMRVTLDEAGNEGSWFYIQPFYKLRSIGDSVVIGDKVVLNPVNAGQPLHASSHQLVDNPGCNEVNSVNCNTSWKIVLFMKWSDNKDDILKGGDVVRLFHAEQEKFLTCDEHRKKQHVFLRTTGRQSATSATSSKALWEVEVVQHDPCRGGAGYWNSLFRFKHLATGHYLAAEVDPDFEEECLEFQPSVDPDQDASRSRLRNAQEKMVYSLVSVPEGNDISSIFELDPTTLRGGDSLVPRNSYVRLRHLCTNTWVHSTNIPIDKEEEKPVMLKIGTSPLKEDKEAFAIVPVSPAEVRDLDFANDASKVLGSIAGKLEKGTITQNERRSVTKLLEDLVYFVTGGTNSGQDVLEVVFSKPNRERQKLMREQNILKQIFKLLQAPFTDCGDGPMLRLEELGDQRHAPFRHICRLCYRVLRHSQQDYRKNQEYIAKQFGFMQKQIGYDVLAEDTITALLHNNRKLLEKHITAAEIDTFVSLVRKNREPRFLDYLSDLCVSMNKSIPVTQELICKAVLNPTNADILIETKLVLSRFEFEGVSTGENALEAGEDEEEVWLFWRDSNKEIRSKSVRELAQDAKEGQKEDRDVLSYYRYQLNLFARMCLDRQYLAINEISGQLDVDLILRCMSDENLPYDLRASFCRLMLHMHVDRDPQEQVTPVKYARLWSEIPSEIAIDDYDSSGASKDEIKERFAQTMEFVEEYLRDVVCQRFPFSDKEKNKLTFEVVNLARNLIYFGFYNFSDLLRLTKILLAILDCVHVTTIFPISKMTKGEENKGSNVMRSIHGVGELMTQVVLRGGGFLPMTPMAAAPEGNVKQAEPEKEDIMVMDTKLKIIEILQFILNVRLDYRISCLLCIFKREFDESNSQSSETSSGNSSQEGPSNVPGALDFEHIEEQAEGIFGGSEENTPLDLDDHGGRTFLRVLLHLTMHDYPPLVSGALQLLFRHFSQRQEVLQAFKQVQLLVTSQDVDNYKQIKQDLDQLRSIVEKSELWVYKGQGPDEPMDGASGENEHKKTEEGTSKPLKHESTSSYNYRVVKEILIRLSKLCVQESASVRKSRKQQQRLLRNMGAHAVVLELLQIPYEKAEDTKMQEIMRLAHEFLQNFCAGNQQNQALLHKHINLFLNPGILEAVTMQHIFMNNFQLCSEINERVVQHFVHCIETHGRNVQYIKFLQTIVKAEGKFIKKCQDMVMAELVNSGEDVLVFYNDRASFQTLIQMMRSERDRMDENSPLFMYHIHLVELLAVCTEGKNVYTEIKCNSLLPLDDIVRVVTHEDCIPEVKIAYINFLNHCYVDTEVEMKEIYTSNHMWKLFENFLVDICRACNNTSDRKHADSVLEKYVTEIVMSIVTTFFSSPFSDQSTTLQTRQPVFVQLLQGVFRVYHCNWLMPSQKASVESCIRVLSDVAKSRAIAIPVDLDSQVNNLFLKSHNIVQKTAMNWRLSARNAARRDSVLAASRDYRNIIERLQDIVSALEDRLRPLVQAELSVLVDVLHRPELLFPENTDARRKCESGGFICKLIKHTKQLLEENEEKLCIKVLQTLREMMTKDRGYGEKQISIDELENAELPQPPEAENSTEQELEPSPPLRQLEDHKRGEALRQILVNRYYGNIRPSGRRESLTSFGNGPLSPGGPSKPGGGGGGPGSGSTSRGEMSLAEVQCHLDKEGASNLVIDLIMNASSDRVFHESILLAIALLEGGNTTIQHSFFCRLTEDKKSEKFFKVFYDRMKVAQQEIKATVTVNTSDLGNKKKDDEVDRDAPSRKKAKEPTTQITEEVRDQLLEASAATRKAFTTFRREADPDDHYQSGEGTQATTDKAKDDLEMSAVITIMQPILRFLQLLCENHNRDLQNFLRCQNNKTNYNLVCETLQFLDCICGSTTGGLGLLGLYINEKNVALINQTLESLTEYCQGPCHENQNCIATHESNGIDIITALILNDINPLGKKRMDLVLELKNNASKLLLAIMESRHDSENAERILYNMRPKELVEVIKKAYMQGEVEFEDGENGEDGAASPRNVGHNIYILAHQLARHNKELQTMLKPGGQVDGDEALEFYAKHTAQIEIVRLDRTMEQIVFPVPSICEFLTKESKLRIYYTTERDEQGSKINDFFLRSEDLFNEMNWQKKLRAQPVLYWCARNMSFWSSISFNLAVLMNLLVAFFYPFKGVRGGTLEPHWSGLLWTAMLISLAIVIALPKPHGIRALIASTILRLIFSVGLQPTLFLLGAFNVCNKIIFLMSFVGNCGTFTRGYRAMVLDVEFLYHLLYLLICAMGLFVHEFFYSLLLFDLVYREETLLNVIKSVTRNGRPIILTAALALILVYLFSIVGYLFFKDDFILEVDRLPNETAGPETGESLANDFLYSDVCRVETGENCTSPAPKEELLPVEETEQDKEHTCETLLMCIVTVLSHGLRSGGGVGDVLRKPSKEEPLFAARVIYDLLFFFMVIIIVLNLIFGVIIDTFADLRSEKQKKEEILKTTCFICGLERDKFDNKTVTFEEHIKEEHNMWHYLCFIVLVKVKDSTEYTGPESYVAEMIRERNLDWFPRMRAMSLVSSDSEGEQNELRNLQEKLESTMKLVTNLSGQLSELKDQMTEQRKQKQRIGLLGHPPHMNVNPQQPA", "assay": "Inositol Triphosphate (IP3) Binding Assay", "conditions": "10^-6 M; Rat cerebellar membranes; [3H]IP3 4.0 nM; read-out: Receptor Binding Activity Percent Inhibition Average (N = 2)", "experimental": "Tissue cultures were prepared using standard laboratory practice for the following tissues: human recombinant M1 clone, human recombinant M2 clone, guinea pig striatal membranes, rat cortical membranes, rat striatal membranes, rat forebrain membranes, bovine hippocampal membranes, guinea pig cerebellar membranes, rat kidney membranes, recombinant rat 5HT7 clone, and rat cerebellar membranes.\nInositol Triphosphate (IP3) Binding Assay\nRat cerebellar membranes\nRadioligand: [^3 H]IP3 (10-30 Ci/mmol)\nFinal ligand concentration - [4.0 nM]\nD-myo-inositol 1,4,5-triphosphate\nReactions are carried out in 50 mM TRIS-HCl (pH 8.3)\n1 mM EDTA at 0° C. for 10 minutes. The reaction is\nrapid vacuum filtration onto glass fiber filters.\nonto the filters is determined and compared to control\norder to ascertain any interactions of test compound with\ninositol triphospate binding site."}, "[9]": {"target": "T7, Histamine (H3) (Rattus norvegicus, UniProt Q9QYN8)", "T7 construct": "Rat forebrain membranes; from tissue; host or cells: rat forebrain membranes", "T7 sequence (Q9QYN8 whole entry)": "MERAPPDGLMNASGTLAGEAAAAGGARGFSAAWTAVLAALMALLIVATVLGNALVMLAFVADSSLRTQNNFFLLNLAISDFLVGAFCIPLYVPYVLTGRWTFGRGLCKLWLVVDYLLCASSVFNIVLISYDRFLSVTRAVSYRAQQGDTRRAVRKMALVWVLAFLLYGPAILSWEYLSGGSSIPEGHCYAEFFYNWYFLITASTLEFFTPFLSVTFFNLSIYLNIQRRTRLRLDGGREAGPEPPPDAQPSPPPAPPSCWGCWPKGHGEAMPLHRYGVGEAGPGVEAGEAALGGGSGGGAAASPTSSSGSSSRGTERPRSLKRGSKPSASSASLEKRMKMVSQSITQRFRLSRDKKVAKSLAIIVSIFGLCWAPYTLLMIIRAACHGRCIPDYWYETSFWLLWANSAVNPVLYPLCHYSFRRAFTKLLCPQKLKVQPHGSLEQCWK", "assay": "Histamine (H3) Binding Assay", "conditions": "10^-6 M; Rat forebrain membranes; [3H]N^a-methylhistamine 0.2 nM; read-out: Receptor Binding Activity Percent Inhibition Average (N = 2)"}, "[10]": {"target": "T8, dopamine uptake site (Cavia porcellus, UniProt H0WCX4)", "T8 construct": "Guinea pig striatal membranes; from tissue; host or cells: guinea pig striatal membranes", "assay": "Dopamine Reuptake Binding Assay", "conditions": "10^-6 M; Guinea pig striatal membranes; [3H]WIN,35,428 1.0 nM"}, "[11]": {"target": "T9, recombinant Rat 5HT7 Clone (Rattus norvegicus, UniProt P32305)", "T9 construct": "expressed in transfected cells", "assay": "Serotonin--5HT7 Clone Binding Assay", "conditions": "10^-6 M, [3H]LSD 2.0 nM, read-out: Receptor Binding Activity Percent Inhibition Average (N = 2)"}, "[12]": {"test_system": "Serotonin (Non-Selective)", "assay": "Serotonin (Non-Selective) Binding Assay", "conditions": "10^-6 M; Rat cortical membranes; [3H]Lysergic acid diethylamide 5.0 nM"}, "[13]": {"target": "T10, Histamine (H2) (Cavia porcellus, UniProt P47747)", "T10 construct": "Guinea pig striatal membranes; from tissue; host or cells: guinea pig striatal membranes", "T10 sequence (P47747 whole entry)": "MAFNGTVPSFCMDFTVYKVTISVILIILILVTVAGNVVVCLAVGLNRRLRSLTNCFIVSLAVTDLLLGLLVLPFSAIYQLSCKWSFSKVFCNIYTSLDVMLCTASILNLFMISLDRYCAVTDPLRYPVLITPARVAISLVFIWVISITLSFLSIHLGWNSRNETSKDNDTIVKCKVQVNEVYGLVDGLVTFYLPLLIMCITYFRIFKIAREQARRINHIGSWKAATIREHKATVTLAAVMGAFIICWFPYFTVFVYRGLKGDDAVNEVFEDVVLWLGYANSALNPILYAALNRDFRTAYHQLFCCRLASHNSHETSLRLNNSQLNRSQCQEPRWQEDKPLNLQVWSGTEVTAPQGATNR", "assay": "Histamine (H2) Binding Assay", "design": "species or system Guinea pig", "conditions": "read-out: Receptor Binding Activity Percent Inhibition Average (N = 2)"}, "[14]": {"target": "T11, Benzodiazepine (Peripheral) (Rattus norvegicus, UniProt P16257)", "T11 construct": "Rat kidney membranes; from tissue; host or cells: rat kidney membranes", "T11 sequence (P16257 whole entry)": "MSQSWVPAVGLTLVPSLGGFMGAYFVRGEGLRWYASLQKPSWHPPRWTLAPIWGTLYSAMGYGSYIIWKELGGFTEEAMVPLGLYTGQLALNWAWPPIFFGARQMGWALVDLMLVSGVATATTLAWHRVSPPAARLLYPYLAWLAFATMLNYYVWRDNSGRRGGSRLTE", "assay": "Benzodiazepine (Peripheral) Binding Assay", "conditions": "read-out: Receptor Binding Activity Percent Inhibition Average (N = 2)"}, "[15]": {"target": "T12, GABA uptake site (Rattus norvegicus, UniProt P23978)", "T12 construct": "Rat cortical membranes; from tissue; host or cells: rat cortical membranes", "assay": "biochemical", "conditions": "read-out: Receptor Binding Activity Percent Inhibition Average (N = 2)"}, "[16]": {"target": "T13, Human recombinant M1 clone (Homo sapiens, UniProt P11229)", "T13 construct": "expressed in transfected cells", "T13 sequence (P11229 1-460)": "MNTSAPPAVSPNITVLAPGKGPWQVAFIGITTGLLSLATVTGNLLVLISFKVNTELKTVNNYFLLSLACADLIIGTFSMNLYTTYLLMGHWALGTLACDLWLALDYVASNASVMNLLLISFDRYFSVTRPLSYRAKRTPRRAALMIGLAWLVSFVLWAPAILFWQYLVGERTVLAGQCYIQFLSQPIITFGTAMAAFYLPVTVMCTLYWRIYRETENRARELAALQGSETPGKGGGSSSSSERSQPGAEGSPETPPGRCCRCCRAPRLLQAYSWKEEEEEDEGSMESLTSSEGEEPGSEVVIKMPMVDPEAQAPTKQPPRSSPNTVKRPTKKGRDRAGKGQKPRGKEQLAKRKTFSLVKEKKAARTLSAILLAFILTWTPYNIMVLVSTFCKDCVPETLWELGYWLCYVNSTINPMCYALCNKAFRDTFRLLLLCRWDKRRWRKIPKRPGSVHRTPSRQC", "assay": "biochemical", "format": "binding", "conditions": "read-out: Receptor Binding Activity Percent Inhibition Average (N = 2)"}, "[17]": {"test_system": "Serotonin (5HT1)", "assay": "Serotonin (5HT1) Binding Assay", "conditions": "10^-6 M; Rat cortical membranes; [3H]Hydroxytryptamine binoxalate 3.0 nM"}, "[18]": {"test_system": "glutamatergic transmission", "conditions": "application to CNS sites in vitro; cited from earlier work"}, "[19]": {"conditions": "in the human; in vivo; cited from earlier work"}}, "note": "Counter-ions that a name gives are not always drawn. Like-named read-outs stand apart in the source and are kept apart here."}
{"compound": "NOCC(=O)O", "note": "[(Amino-oxy)Acetic Acid]", "values": [{"measurement": "Ki", "setting": "[1]; reference compound", "result": 3.55, "unit": "µM"}]}
{"compound": "CN1C(=O)CC[C@H]1c1cccnc1", "note": "[Cotinine2 Fumarate, cotinine fumarate]", "values": [{"measurement": "inhibition at 1 µM", "setting": "[2]", "result": 15.9, "unit": "%"}, {"measurement": "Receptor Binding Activity Percent Inhibition Average (N = 2)", "setting": "[3]", "result": -1.2, "unit": "%"}, {"measurement": "inhibition at 1 µM", "setting": "[4]", "result": 20.7, "unit": "%"}, {"measurement": "inhibition at 1 µM", "setting": "[5]", "result": 17.6, "unit": "%"}, {"measurement": "inhibition at 1 µM", "setting": "[6]", "result": 2.7, "unit": "%"}, {"measurement": "inhibition at 1 µM", "setting": "[7]", "result": -5.6, "unit": "%"}, {"measurement": "inhibition at 1 µM", "setting": "[8]", "result": -5.1, "unit": "%"}, {"measurement": "inhibition at 1 µM", "setting": "[9]", "result": 15.4, "unit": "%"}, {"measurement": "Receptor Binding Activity Percent Inhibition Average (N = 2)", "setting": "[10]", "result": 4.6, "unit": "%"}, {"measurement": "inhibition at 1 µM", "setting": "[11]", "result": 1.4, "unit": "%"}, {"measurement": "Receptor Binding Activity Percent Inhibition Average (N = 2)", "setting": "[12]", "result": 4.1, "unit": "%"}, {"measurement": "inhibition at 0.01 µM", "setting": "[13]", "result": 14.7, "unit": "%"}, {"measurement": "inhibition at 1 µM", "setting": "[14]", "result": 1.8, "unit": "%"}, {"measurement": "inhibition at 1 µM", "setting": "[15]; 10^-6 M, Rat cortical membranes, [3H]GABA 3.6 nM", "result": 15.8, "unit": "%"}, {"measurement": "inhibition at 1 µM", "setting": "[16]", "result": 3.1, "unit": "%"}, {"measurement": "Receptor Binding Activity Percent Inhibition Average (N = 2)", "setting": "[17]", "result": 5.4, "unit": "%"}]}
{"compound": "CN1CCCC1c1cccnc1", "note": "(stereo not shown) [Nicotine, reference compound]", "values": [{"measurement": "Receptor Binding Activity Percent Inhibition Average (N = 2)", "setting": "[3]", "result": 2.6, "unit": "%"}, {"measurement": "inhibition at 1 µM", "setting": "[4]", "result": 4.4, "unit": "%"}, {"measurement": "inhibition at 1 µM", "setting": "[5]", "result": 10.1, "unit": "%"}, {"measurement": "inhibition at 1 µM", "setting": "[6]", "result": 3.3, "unit": "%"}, {"measurement": "inhibition at 1 µM", "setting": "[7]", "result": 1.5, "unit": "%"}, {"measurement": "amplitude of the evoked currents", "setting": "[18]", "result": "more than doubled"}, {"measurement": "Percent Inhibition", "setting": "[1]; 10^-8 M", "result": 40, "unit": "%"}, {"measurement": "inhibition at 1 µM", "setting": "[8]", "result": 3.2, "unit": "%"}, {"measurement": "inhibition at 1 µM", "setting": "[9]", "result": 13.5, "unit": "%"}, {"measurement": "Receptor Binding Activity Percent Inhibition Average (N = 2)", "setting": "[10]", "result": 9.2, "unit": "%"}, {"measurement": "inhibition at 1 µM", "setting": "[11]", "result": 8, "unit": "%"}, {"measurement": "half-life", "setting": "[19]", "result": "one to two"}, {"measurement": "Receptor Binding Activity Percent Inhibition Average (N = 2)", "setting": "[12]", "result": 6.3, "unit": "%"}, {"measurement": "inhibition at 1 µM", "setting": "[13]; 10^-6 M, Guinea pig striatal membranes, [3H]Tiotidine 4.0 nM", "result": 45.9, "unit": "%"}, {"measurement": "inhibition at 1 µM", "setting": "[14]", "result": 3.1, "unit": "%"}, {"measurement": "inhibition at 1 µM", "setting": "[15]", "result": 12.1, "unit": "%"}, {"measurement": "Receptor Binding Activity Percent Inhibition Average (N = 2)", "setting": "[17]", "result": -1.4, "unit": "%"}]}
